In US9034877B2 (Wayne State University, priority 2009, dated 2015):
Where a name gives a salt, the structure may show the parent alone.

What was measured:
[1] = target: T1, D3 receptor (Rattus norvegicus, UniProt P19020); assay: Inhibition of [3H]spiperone binding to cloned D3 receptors expressed in HEK-293 cells; details: for Ki: [3H]spiperone, rat D3 in HEK-293 cells
T1 construct: expressed in transfected cells

[2] = target: T2, D2L receptor (Rattus norvegicus, UniProt P61169); assay: Inhibition of [3H]spiperone binding to cloned D2L receptors expressed in HEK-293 cells; details: rat D2L in HEK-293 cells, read-out: Ki, D2 receptor
T2 construct: expressed in transfected cells
T2 sequence (P61169 whole entry): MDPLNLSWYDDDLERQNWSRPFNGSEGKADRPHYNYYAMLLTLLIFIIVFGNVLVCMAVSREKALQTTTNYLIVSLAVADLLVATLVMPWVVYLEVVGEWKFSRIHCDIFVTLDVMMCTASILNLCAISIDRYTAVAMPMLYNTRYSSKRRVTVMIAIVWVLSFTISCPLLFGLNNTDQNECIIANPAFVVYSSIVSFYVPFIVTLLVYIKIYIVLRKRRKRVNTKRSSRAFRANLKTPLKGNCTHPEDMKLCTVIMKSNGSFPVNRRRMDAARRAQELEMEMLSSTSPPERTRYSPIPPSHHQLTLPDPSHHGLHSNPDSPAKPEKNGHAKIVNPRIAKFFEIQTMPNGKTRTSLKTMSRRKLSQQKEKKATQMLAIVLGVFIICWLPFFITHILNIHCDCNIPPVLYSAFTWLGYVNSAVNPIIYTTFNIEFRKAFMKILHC

T1 sequence (P19020 whole entry): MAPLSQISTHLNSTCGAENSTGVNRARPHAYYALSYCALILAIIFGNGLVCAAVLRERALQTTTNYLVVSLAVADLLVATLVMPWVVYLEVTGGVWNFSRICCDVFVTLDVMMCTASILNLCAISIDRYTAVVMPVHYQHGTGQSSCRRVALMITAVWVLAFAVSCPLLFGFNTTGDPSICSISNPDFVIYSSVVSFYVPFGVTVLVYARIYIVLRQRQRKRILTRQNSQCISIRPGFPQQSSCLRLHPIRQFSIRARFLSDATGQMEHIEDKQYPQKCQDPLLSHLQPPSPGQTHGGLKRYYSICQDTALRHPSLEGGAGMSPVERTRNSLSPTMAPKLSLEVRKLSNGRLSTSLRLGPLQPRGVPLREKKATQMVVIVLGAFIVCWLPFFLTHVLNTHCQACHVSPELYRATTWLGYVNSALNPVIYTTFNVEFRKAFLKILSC

Ki [1] [nM]	melting point [°C]	SMILES	further results
–	142 to 146	CCCN(CCN1CCN(C(=O)c2cnc3ccccc3c2)CC1)C1CCc2c(O)cccc2C1 (stereo not shown) (as salt: HCl) [Compound 40j, (4-{2-[(5-Hydroxy-1,2,3,4-tetrahydro-naphthalen-2-yl)-propyl-amino]-ethyl}-piperazin-1-yl)-quinolin-3-yl-methanone]	–
2	–	CCCN(CCN1CCN(c2ccc3[nH]ccc3c2)CC1)C1CCc2ccc(O)cc2C1 (stereo not shown) [Compound 52, 7-((2-(4-(1H-indol-5-yl)piperazin-1-yl)ethyl)(propyl)amino)-5,6,7,8-tetrahydro-naphthalen-2-ol]	Ki [2]: 30 nM
–	168 to 169	CCCN(CCN1CCN(C(=O)c2cc3ccccc3[nH]2)CC1)C1CCc2c(O)cccc2C1 (single isomer, unassigned; (-)) (as salt: HCl) [Compound (−)-40e, (−)-(4-{2-[(5-Hydroxy-1,2,3,4-tetrahydro-naphthalen-2-yl)-propyl-amino]-ethyl}-piperazin-1-yl)-(1H-indol-2-yl)-methanone]	–
–	131 to 134	CCCN(CCN1CCN(C(=O)c2cc3ccccc3s2)CC1)C1CCc2c(O)cccc2C1 (stereo not shown) (as salt: HCl) [Compound 40i, Benzo[b]thiophen-2-yl-(4-{2-[(5-hydroxy-1,2,3,4-tetrahydro-naphthalen-2-yl)-propyl-amino]-ethyl}-piperazin-1-yl)-methanone]	–
–	179 to 183	CCCN(CCN1CCN(c2ccc3[nH]ccc3c2)CC1)C1CCc2ccc(O)cc2C1 (stereo not shown) (as salt: oxalate) [Compound 52, 7-((2-(4-(1H-indol-5-yl)piperazin-1-yl)ethyl)(propyl)amino)-5,6,7,8-tetrahydro-naphthalen-2-ol]	–
3.62	–	CCCN(CCN1CCN(C(=O)c2c[nH]c3ccccc23)CC1)C1CCc2c(O)cccc2C1 (stereo not shown) [Compound 40f, (4-{2-[(5-Hydroxy-1,2,3,4-tetrahydro-naphthalen-2-yl)-propyl-amino]-ethyl}-piperazin-1-yl)-(1H-indol-3-yl)-methanone]	Ki [2]: 58.9 nM
–	237 to 240	CCCN(CCN1CCN(c2ccnc3c(O)cccc23)CC1)C1CCc2c(O)cccc2C1 (single isomer, unassigned; (-)) (as salt: hydrochloride) [Compound (−)19b, (−)-4-(4-(2-((5-hydroxy-1,2,3,4-tetrahydronaphthalen-2-yl) (propyl)amino)ethyl)piperazin-1-yl)quinolin-8-ol]	–
–	169 to 170	CCCN(CCN1CCN(C(=O)c2cc3ccccc3[nH]2)CC1)C1CCc2c(O)cccc2C1 (single isomer, unassigned; (+)) (as salt: HCl) [Compound (+)-40e, (+)-(4-{2-[(5-Hydroxy-1,2,3,4-tetrahydro-naphthalen-2-yl)-propyl-amino]-ethyl}-piperazin-1-yl)-(1H-indol-2-yl)-methanone]	–
–	167 to 170	CCCN(CCN1CCN(C(=O)c2n[nH]c3ccccc23)CC1)C1CCc2c(O)cccc2C1 (stereo not shown) (as salt: HCl) [Compound 40g, (4-{2-[(5-Hydroxy-1,2,3,4-tetrahydro-naphthalen-2-yl)-propyl-amino]-ethyl}-piperazin-1-yl)-(1H-indazol-3-yl)-methanone]	–
–	147 to 151	CCCN(CCN1CCN(C(=O)c2c[nH]c3ccccc23)CC1)C1CCc2c(O)cccc2C1 (stereo not shown) (as salt: HCl) [Compound 40f, (4-{2-[(5-Hydroxy-1,2,3,4-tetrahydro-naphthalen-2-yl)-propyl-amino]-ethyl}-piperazin-1-yl)-(1H-indol-3-yl)-methanone]	–

More lines, now with the values behind:

SMILES	Ki [1] [nM]	melting point [°C]	further results
CCCN(CCN1CCN(Cc2ccc3[nH]ccc3c2)CC1)C1CCc2ccc(O)cc2C1 (stereo not shown) [Compound 40b, 7-({2-[4-(1H-Indol-5-ylmethyl)-piperazin-1-yl]-ethyl}-propyl-amino)-5,6,7,8-tetrahydro-naphthalen-2-ol]	3.87	–	Ki [2]: 144 nM
CCCN(CCN1CCN(Cc2ccc(O)c3ncccc23)CC1)C1CCc2c(O)cccc2C1 (stereo not shown) (as salt: hydrochloride) [Compound 12b, 5-((4-(2-((5-hydroxy-1,2,3,4-tetrahydronaphthalen-2-yl)(propyl)amino)ethyl)piperazin-1-yl)methyl)quinolin-8-ol]	–	252 to 255	–
CCCN(CCN1CCN(c2ccnc3c(O)cccc23)CC1)C1CCc2c(O)cccc2C1 (single isomer, unassigned; (+)) (as salt: hydrochloride) [(+)19b, (+)-4-(4-(2-((5-hydroxy-1,2,3,4-tetrahydronaphthalen-2-yl) (propyl)amino)ethyl)piperazin-1-yl)quinolin-8-ol]	–	230 to 232	–
CCCN(CCN1CCN(C(=O)c2cc3ccccc3[nH]2)CC1)C1CCc2ccc(O)cc2C1 (stereo not shown) [Compound 40c, (4-{2-[(7-Hydroxy-1,2,3,4-tetrahydro-naphthalen-2-yl)-propyl-amino]-ethyl}-piperazin-1-yl)-(1H-indol-2-yl)-methanone]	3.72	–	D2/D3 (Ki ratio, binding selectivity) ([1]; Ki D2 / Ki D3): 31; Ki [2]: 116 nM
CCCN(CCN1CCN(Cc2ccc(O)c3ncccc23)CC1)C1CCc2ccc(O)cc2C1 (stereo not shown) [Compound 12a, 5-((4-(2-((7-hydroxy-1,2,3,4-tetrahydronaphthalen-2-yl)(propyl)amino)ethyl)piperazin-1-yl)methyl) quinolin-8-ol]	5.57	–	Ki [2]: 86 nM
CCCN(CCN1CCN(Cc2cc3ccccc3[nH]2)CC1)C1CCc2ccc(O)cc2C1 (stereo not shown) (as salt: oxalate) [Compound 40d, 7-({2-[4-(1H-Indol-2-ylmethyl)-piperazin-1-yl]-ethyl}-propyl-amino)-5,6,7,8-tetrahydro-naphthalen-2-ol]	–	135 to 137	–
CCCN(CCN1CCN(Cc2ccc3[nH]ccc3c2)CC1)C1CCc2ccc(O)cc2C1 (stereo not shown) (as salt: oxalate) [Compound 40b, 7-({2-[4-(1H-Indol-5-ylmethyl)-piperazin-1-yl]-ethyl}-propyl-amino)-5,6,7,8-tetrahydro-naphthalen-2-ol]	–	198 to 203	–
CCCN(CCN1CCN(C(=O)c2cc3ccccc3[nH]2)CC1)C1CCc2c(O)cccc2C1 (racemic) [Compound 40e, (4-{2-[(5-Hydroxy-1,2,3,4-tetrahydro-naphthalen-2-yl)-propyl-amino]-ethyl}-piperazin-1-yl)-(1H-indol-2-yl)-methanone]	0.55	–	–
CCCN(CCN1CCN(Cc2ccc(O)c3ncccc23)CC1)C1CCc2c(O)cccc2C1 (stereo not shown) [Compound 12b, 5-((4-(2-((5-hydroxy-1,2,3,4-tetrahydronaphthalen-2-yl)(propyl)amino)ethyl)piperazin-1-yl)methyl)quinolin-8-ol]	3.71	–	–
CCCN(CCN1CCN(C(=O)c2cc3ccccc3[nH]2)CC1)C1CCc2ccc(O)cc2C1 (stereo not shown) (as salt: HCl) [Compound 40c, (4-{2-[(7-Hydroxy-1,2,3,4-tetrahydro-naphthalen-2-yl)-propyl-amino]-ethyl}-piperazin-1-yl)-(1H-indol-2-yl)-methanone]	–	203 to 205	–
CCCN(CCN1CCN(C(=O)c2cnc3ccccc3c2)CC1)C1CCc2c(O)cccc2C1 (stereo not shown) [Compound 40j, (4-{2-[(5-Hydroxy-1,2,3,4-tetrahydro-naphthalen-2-yl)-propyl-amino]-ethyl}-piperazin-1-yl)-quinolin-3-yl-methanone]	–	–	Ki [2]: 158 nM
CCCN(CCN1CCN(c2ccnc3c(O)cccc23)CC1)C1CCc2c(O)cccc2C1 (stereo not shown) [Compound 19b]	1.35	–	–
